Source: publication PMC11788964, “Clinical Pharmacology and Approach to Dose Selection of Emestedastat, a Novel Tissue Cortisol Synthesis Inhibitor for the Treatment of Central Nervous System Disease” (Clinical Pharmacology in Drug Development, 2025)

Tests used:
AD population = test system: AD population; parameters: method as in PMID 24418055; settings: 12‐week Phase 2 trial in AD; cited from earlier work
[1] = test system: mice with age‐associated cognitive impairment; murine Tg2576 model of AD; settings: aged mice and murine Tg2576 model of AD; cited from earlier work
brain 11β‐HSD1 = settings: aged mice and murine Tg2576 model of AD; cited from earlier work
[2] = test system: healthy older men; patients with type 2 diabetes mellitus; parameters: method as in PMID 15071189; settings: cited from earlier work
11β‐HSD1 = test system: 11β‐HSD1; parameters: method as in PMID 38250767; settings: 5 mg; cited from earlier work
[3] = Population pharmacokinetic (PPK) analysis of MAD, XanADu and XanaHES trials; assay type: in vivo, human
Description: PPK analysis was performed on data from 3 trials: the MAD trial in volunteers; the XanADu trial in patients with AD; and XanaHES in older, cognitively normal participants. In total, 138 participants (18 healthy volunteers, 90 patients with AD, and 30 healthy older participants) contributed a total of 1087 evaluable plasma concentration observations.
The analyses were performed using NONMEM Version 7.3.0 (ICON plc). PK parameter relationships were sought with the covariates body weight, age, sex, and healthy versus AD. The selected PPK model was a one‐compartment model with first‐order absorption and elimination. It was successfully fitted using Monte Carlo Importance Sampling Expectation Maximization estimation and included separate relative bioavailability terms for the Day 1 PK data from the XanADu and XanaHES trials. The M3 method was used to permit the inclusion of the below‐the‐limit quantification concentrations in the analysis. The model estimated between‐subject variation in all 4 parameters and used a full ω block to estimate the covariance between parameters. The model included a weight effect on the apparent volume of distribution.

[4] = Safety and tolerability in clinical trials; assay type: in vivo, human
Source text: All trials were approved by a local ethics committee/institutional review board, and all participants gave written informed consent. Endocrinology data and a population PK (PPK) analysis are available from the following trials: • · A single‐ascending‐dose (SAD) trial in healthy volunteers (RD 656/25368)[25] • · A multiple‐ascending‐dose (MAD) trial in healthy volunteers, including a small subtrial measuring CSF concentrations (ACW0001)[25] • · A positron emission tomography (PET) trial in cognitively normal, older volunteers and patients with AD (ACW0004)[26] • · Two trials in cognitively normal, older volunteers examining safety and effects on cognition (Trials ACW0003, NCT03830762 and ACW0005; and NCT04983368) • · A PPK analysis from the healthy volunteer and patient trials • · HPA axis endocrinology data from the volunteer and patient trials • · A trial of efficacy and safety in patients with AD (ACW0002; NCT02727699)[27]
Initially, the SAD and MAD trials studied doses up to 35 mg twice daily and assessed PK and HPA PD.

[5] = test system: healthy older participants; test: XanaMIA‐DR (ACW0005) computerized cognitive test battery (Cogstate); assay type: in vivo, human
Description: XanaMIA‐DR (ACW0005) was a double‐blind placebo‐controlled Phase 1b trial in 107 healthy older participants (age range, 50‐80 years) at doses of 5 and 10 mg daily for 6 weeks. The principal objective of XanaMIA‐DR was to assess whether the improvements in cognition observed in XanaHES were also present at the lower doses of 5 and 10 mg daily.
(§1) In both XanaHES and XanaMIA‐DR, cognition was assessed using a computerized CTB (Cogstate). The CTB comprised tests indexing key domains of cognition including processing speed, attention, visual learning, working memory, psychomotor function, and executive function. In XanaHES, least squares mean differences between the emestedastat 20 mg treatment group and the placebo group were estimated and tested at a 2‐sided 0.05 significance level. No adjustments for α were made for multiple comparisons. In XanaMIA‐DR, standardized effect sizes, equivalent to a Z score, were calculated with a threshold for clinically meaningful effect set at 0.9, representing a 1‐sided 80% confidence interval (CI).
(§2) The individual tests from the Cogstate battery were combined into 2 composite scores indexing: • · “Attention Composite” of attention and working memory (Detection Test, Identification Test, One Back Test) • · “Memory Composite” of episodic memory and learning (One Card Learning Test, Continuous Paired Associate Learning Test, and Continuous Paired Associate Learning Test‐Delayed Recall).
(§3) To compute the Attention and Memory Composite scores, each of the component‐test scores were Z transformed, the directionality of scores was reversed so that higher scores indicate better performance, and the component Z scores were averaged.

patients with AD = test system: patients with AD; parameters: method as in PMID 34679364; settings: 10 mg daily 12 weeks, elevated plasma pTau181; cited from earlier work
peripheral 11β‐HSD1 = test system: peripheral 11β‐HSD1; parameters: method as in PMID 28012176; settings: all doses in the MAD trial (10 to 35 mg twice daily); cited from earlier work
[6] = SAD and MAD trials of up to 35 mg twice daily; cited from earlier work
[7] = test system: cognitively normal, older participants; test: XanaHES (ACW0003) computerized cognitive test battery (Cogstate); assay type: in vivo, human; settings: 20 mg daily, over 12 weeks
Description: The next trial, XanaHES (ACW0003) was a double‐blind, placebo‐controlled, Phase 1b trial in cognitively normal, older participants (age range, 50‐75 years) at a dose of 20 mg daily for 12 weeks. The population of 42 participants comprised 30 receiving emestedastat and 12 receiving placebo. The objectives were to assess safety, PK, HPA PD, and cognition. The computerized cognitive test battery (CTB; Cogstate) assessed attention, working memory, and episodic memory.
as §1, §2, §3

[8] = parameters: method as in PMID 28012176; settings: cited from earlier work

CC(C)(C(=O)NC1C2CC3CC1CC(C(N)=O)(C3)C2)N1CCN(c2ccc(C(F)(F)F)cn2)CC1 (stereo not drawn) [ABT‐384]
therapeutic outcome in AD (AD population): therapeutic failure

O=C(c1csc(-c2cn[nH]c2)c1)N1CCC(F)(c2ccccc2Cl)CC1 [UE2316]
amyloid‐β in the cortex [1]: reduction in amyloid‐β in the cortex
memory [1]: improved memory
inhibition of 11β‐HSD1 in the brain (brain 11β‐HSD1): approximately 30%

CC1(C)[C@@H](OC(=O)CCC(=O)O)CC[C@]2(C)[C@H]3C(=O)C=C4[C@@H]5C[C@@](C)(C(=O)O)CC[C@]5(C)CC[C@@]4(C)[C@]3(C)CC[C@@H]12 [carbenoxolone]
verbal fluency test (executive function) ([2]; 10 healthy older (55‐75 years) men, 4 weeks): improved
verbal memory in the Rey Auditory Verbal Learning Test ([2]; 12 patients with type 2 diabetes mellitus): improved verbal memory

O=C(c1csc(-c2cn[nH]c2)c1)N1C2CCC1CC(O)(c1ncccn1)C2 (stereo not drawn) [emestedastat, (5‐(1H‐Pyrazol‐4‐yl)thiophen‐3‐yl)(3‐hydroxy‐3‐(pyrimidin‐2‐yl)‐8 azabicyclo[3.2.1]octan‐8‐yl) methanone]
occupancy in the cerebellum relative to cortex (11β‐HSD1): lower (by about half)
linearity of PK ([3]; dose range 10‐70 mg): linear
ALAG (absorption lag time), estimate ([3]; final PPK model): 0.900 h
ka (absorption rate), estimate ([3]; final PPK model): 1.74 h⁻¹
CL/F (apparent clearance), estimate ([3]; final PPK model, 138 participants): 4.76 L/h
WT on V/F (covariate), estimate ([3]; final PPK model, weight effect on V/F): 1.00
Vd/F ([3]; human, plasma, oral, final PPK model, read-out: V/F (apparent volume of distribution), estimate): 64.3 L
half-life ([3]; human, plasma, oral, from kel = CL/V and t1/2 = ln(2)/Kel, read-out: mean elimination half‐life (95% CI)): 9.36 h
maximum tolerated dose in humans ([4]; all trials): has not been established
serious adverse events attributed to drug ([4]; any trial): no serious adverse events
treatment effect in the tests making up the Memory Composite ([5]; 5 and 10 mg daily, 6 weeks): no evidence of any treatment effect
improvement on the identification test (visual attention) compared to placebo ([5]; 5‐mg treatment group, 6 weeks): −0.018 U
Cohen's d, identification test ([5]; 5‐mg treatment group, vs placebo): 0.32
Cohen's d, AD COMposite Scores (patients with AD): < 0.2
Cohen's d, ADAS‐Cog14 (patients with AD): < 0.2
Cohen's d, Clinical Dementia Ratio—Sum of Boxes compared to placebo (patients with AD): 0.41
Cohen's d, Mini‐Mental State Examination (patients with AD): < 0.2
Cohen's d, Neuropsychological Test Battery‐Executive domain (patients with AD): 0.26
inhibition of peripheral 11β‐HSD1 (suppression of urinary tetrahydrocortisol/tetrahydrocortisone ratios) (peripheral 11β‐HSD1): Near complete inhibition
maximum tolerated dose [6]: had not been established
tolerability [6]: well tolerated
One Card Learning Test, Continuous Paired Associate Learning Test and Delayed Recall, vs placebo [7]: no difference between groups
least squares mean difference on the One Back Test compared to placebo [7]: −0.06 U
least squares mean difference on the detection test compared to placebo [7]: −0.04 U
least squares mean difference on the identification test compared to placebo [7]: −0.03 U
Cohen's d, One Back Test ([7]; vs placebo): 0.98
Cohen's d, detection test ([7]; vs placebo): 0.49
Cohen's d, identification test ([7]; vs placebo): 0.65
CSF : free plasma ratio ([8]; 4 participants, single time point): 0.33
urinary excretion of unchanged drug ([8]; SAD and MAD trials): < 5%
